The subject of one data set is Pneumocystis carinii. Nature of the data set: In vivo activity against Pneumocystis carinii (lung cyst counts and toxicity). To be noted: for Toxicity: toxicity scale, larger value = more severe, values greater than 2 indicate deaths of some animals.
Data set [1] addresses topoisomerase II isolated from Giardia lamblia. Nature of the data set: Topoisomerase II inhibition (Giardia lamblia enzyme). Conditions: 50% inhibition of topoisomerase II isolated from Giardia lamblia; read-out: IC50 Topoisomerase Activity II G.l. It is filed as biochemical.
In a further data set the test system is poly A poly T. Nature of the data set: DNA thermal melting (increase in Tm of poly A poly T). It is filed as binding. To be noted: MES buffer pH 6.0, 0.1 M NaCl, ratio of 0.3 moles of compound to nucleic acid bases. The procedure:
(§1) Thermal melting curves for DNA and its complexes with compounds from Examples 4, 6, and 7-9 are determined as previously described in F.A. Tanious, et al., J.Biomol. Structure & Dynamics 11:1063 (1994) and W.D. Wilson, et al., Biochemistry 32:4098 (1993), by following the adsorption change at 260 nm as a function of temperature. Tm values were determined from first derivative plots. Compounds are compared by the increase in Tm (ΔTm=Tm of complex - Tm of the free nucleic acid) they produce in MES buffer (0.01M 2-(N-morpholino) ethanesulfonic acid, 0.001 M EDTA, 0.1 M NaCl adjusted to pH 6.0) at saturating amounts of compound (a ratio of 0.3 moles of compound to nucleic acid bases) unless otherwise indicated.

Data set [2] concerns the target T1, topoisomerase II isolated from Drosophila melanogaster (Drosophila melanogaster, UniProt P15348).
T1 construct: topoisomerase II isolated from Drosophila melanogaster; from tissue
T1 sequence (P15348 1-1447): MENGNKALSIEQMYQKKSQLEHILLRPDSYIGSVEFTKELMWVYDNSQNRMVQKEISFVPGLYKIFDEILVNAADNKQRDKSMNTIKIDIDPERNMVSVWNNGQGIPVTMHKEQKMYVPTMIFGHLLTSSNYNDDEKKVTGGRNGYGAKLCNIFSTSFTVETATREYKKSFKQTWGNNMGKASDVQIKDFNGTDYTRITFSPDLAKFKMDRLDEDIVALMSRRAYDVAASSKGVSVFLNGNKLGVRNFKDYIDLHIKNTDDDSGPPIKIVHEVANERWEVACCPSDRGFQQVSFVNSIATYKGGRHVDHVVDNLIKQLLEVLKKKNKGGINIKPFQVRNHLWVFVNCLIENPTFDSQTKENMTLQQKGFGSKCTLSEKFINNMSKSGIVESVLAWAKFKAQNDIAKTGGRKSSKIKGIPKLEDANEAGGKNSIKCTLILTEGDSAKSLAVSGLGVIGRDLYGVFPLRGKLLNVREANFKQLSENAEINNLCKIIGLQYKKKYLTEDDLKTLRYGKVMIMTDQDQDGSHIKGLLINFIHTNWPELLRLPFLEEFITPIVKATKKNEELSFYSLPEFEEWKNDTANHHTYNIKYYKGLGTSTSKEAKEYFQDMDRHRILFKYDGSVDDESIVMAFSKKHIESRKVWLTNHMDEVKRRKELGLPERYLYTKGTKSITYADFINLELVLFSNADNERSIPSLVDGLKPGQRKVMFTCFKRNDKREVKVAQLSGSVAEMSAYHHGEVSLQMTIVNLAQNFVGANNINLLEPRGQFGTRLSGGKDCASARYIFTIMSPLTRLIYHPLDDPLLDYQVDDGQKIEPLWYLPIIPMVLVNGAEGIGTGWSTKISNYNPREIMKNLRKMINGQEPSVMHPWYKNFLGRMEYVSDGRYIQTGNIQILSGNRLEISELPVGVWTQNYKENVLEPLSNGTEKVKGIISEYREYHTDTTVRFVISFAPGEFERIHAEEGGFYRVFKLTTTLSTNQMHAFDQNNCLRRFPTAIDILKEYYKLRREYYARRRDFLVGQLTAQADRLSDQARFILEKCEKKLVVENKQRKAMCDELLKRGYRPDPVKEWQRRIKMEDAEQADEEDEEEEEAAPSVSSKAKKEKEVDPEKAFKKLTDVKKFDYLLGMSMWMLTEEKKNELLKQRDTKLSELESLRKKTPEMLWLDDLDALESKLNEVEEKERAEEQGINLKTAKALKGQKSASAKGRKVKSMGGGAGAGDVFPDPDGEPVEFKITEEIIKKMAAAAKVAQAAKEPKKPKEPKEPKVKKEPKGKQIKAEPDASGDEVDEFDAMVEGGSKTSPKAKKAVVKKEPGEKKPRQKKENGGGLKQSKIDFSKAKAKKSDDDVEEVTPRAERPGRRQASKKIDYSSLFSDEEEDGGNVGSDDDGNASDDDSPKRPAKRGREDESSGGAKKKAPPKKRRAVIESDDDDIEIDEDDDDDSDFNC
Briefly: Topoisomerase II inhibition (Drosophila melanogaster enzyme). It is filed as biochemical.

The next data set relates to Giardia lamblia. Briefly: Inhibition of growth of Giardia lamblia in in vitro culture. It is filed as cell-based.
The test system of a further data set is Cryptosporidium parvum. Nature of the data set: Activity against Cryptosporidium parvum in suckling mice (oocyst counts). It is filed as in vivo. To be noted: suckling ICR outbred Swiss mice; for Oocysts: mean oocyst count, control 36.71; for % Reduction: reduction of mean oocyst count versus control.
The target of data set [3] is topoisomerase I isolated from Pneumocystis carinii. Nature of the data set: Topoisomerase I inhibition (Pneumocystis carinii enzyme). The format is biochemical. Conditions: 50% inhibition of topoisomerase I isolated from Pneumocystis carinii.
The test system of data set [4] is oligomer d(GCGCAATTGCGC)2. Briefly: DNA thermal melting (increase in Tm of oligomer). Conditions: increase in thermal melting of the oligomer d(GCGCAATTGCGC)2; MES buffer pH 6.0. The format is binding. How it is done:
as §1

Setting [5] is: Giardia duodenalis; read-out: IC50 Giardia lamblia.
[6] abbreviates: Pneumocystis carinii, iv, read-out: cyst/g lung (% of control).

Five molecules from patent publication EP0792271B1, “FURAN DERIVATIVES FOR INHIBITING PNEUMOCYSTIS CARINII PNEUMONIA, GIARDIA LAMBLIA AND CRYPTOSPORIDIUM PARVUM” (priority 1994, dated 1996) can be followed below.

As usually defined, the IC50 is the concentration that inhibits the measured activity by half.

SMILES strings stand for the structures. Read-outs that look alike come from different tables or passages of the source.

With `CC(C)NC(=N)c1ccc(-c2ccc(-c3ccc(C(=N)NC(C)C)cc3)o2)cc1` [Compound 13, 2,5-bis[4-(N-isopropylamidino)phenyl]furan], in the data set on Pneumocystis carinii (dosage 10.8 µM/kg/day intravenous), the Toxicity stood at 0. Moreover, the IC50 in data set [1] is 0.5 to 1 µM; in data set [2], 15 to 30 µM; with Giardia lamblia (setting [5]), 0.14 µM. In the data set with poly A poly T, the ΔTm DNA is 23.1 °C. Further, the Oocysts in the data set with Cryptosporidium parvum was 2.13. Besides, the “% Reduction” value with Cryptosporidium parvum is 94.2%.
On to `Cc1ccc(Oc2cc(-c3ccc(C4=NCCN4)cc3)oc2-c2ccc(C3=NCCN3)cc2)cc1` [Compound 9, 2,5-[bis{4-(2-imidazolinyl)}phenyl]3-p-tolyloxy furan], for which the Toxicity result with Pneumocystis carinii (dosage 9.3 µM/kg/day intravenous) is recorded as “+2”. In addition, the IC50 is 2 to 4 µM in data set [1], 25 µM in data set [2], over 100 µM in the data set on Giardia lamblia (setting [5]) and 12.5 µM in data set [3]. The ΔTm DNA in the data set on poly A poly T was found to be 18.1 °C.
Consider `Cc1c(-c2ccc(C(=N)N)cc2)oc(-c2ccc(C(=N)N)cc2)c1C` [Compound 8, 2,5-bis(4-amidinophenyl)-3,4-dimethyl furan], for which, in the data set on Pneumocystis carinii (dosage 24.7 µM/kg/day intravenous), the Toxicity result is “+1”. In addition, the IC50 in data set [1] is 0.75 µM; in data set [2] it was 2.4 µM; in the data set on Giardia lamblia (setting [5]), 0.26 µM; in data set [3], under 3.12 µM.
Turning to `c1cc(-c2ccc(-c3ccc(C4=NCCCN4)cc3)o2)ccc1C1=NCCCN1` [Compound 3, 2,5-di-p[2(3,4,5,6-tetrahydropyrimidyl)phenyl]furan], the response vs control in vivo at 10.9 µM in the data set on Pneumocystis carinii (setting [6]) is 0.4%. In addition, in the data set on Pneumocystis carinii (dosage 10.9 µM/kg/day intravenous), the Toxicity entry is given as “+2”. The IC50 in data set [1] is 0.5 to 1 µM; in data set [2], 2.5 µM; in the data set with Giardia lamblia (setting [5]) it was 0.06 µM; in data set [3], over 100 µM. Moreover, in the data set on poly A poly T, the ΔTm DNA is over 28 °C. In addition, the ΔTm Oligomer in data set [4] was determined as 13.5 °C.
Consider `N=C(N)c1ccc(-c2ccc(-c3ccc(C(=N)N)cc3)o2)cc1` [Compound 1, 2,5-bis(4-amidinophenyl)furan], for which, in the data set with Pneumocystis carinii (setting [6]), the response vs control in vivo at 0.027 µM turned out to be 55.9%. Further, in the data set on Pneumocystis carinii (setting [6]), the response vs control in vivo at 0.27 µM was found to be 4.8%. The response vs control in vivo at 2.7 µM in the data set on Pneumocystis carinii (setting [6]) came out at 8.3%. Moreover, the response vs control in vivo at 13.3 µM in the data set on Pneumocystis carinii (setting [6]) worked out at 2.1%. Besides, in the data set on Pneumocystis carinii (Pneumocystis carinii, po, read-out: cyst/g lung (% of control)), the response vs control in vivo at 66.3 µM worked out at 28.4%. In addition, the Toxicity was determined as 0 in the data set on Pneumocystis carinii (dosage 0.027 µM/kg/day intravenous); 0 in the data set on Pneumocystis carinii (dosage 0.27 µM/kg/day intravenous); 0 in the data set with Pneumocystis carinii (dosage 2.7 µM/kg/day intravenous); 0 with Pneumocystis carinii (dosage 13.3 µM/kg/day intravenous); 0 in the data set with Pneumocystis carinii (dosage 66.3 µM/kg/day, oral dosage by gavage). The 50% inhibitory concentration (IC50) is 0.5 to 1 µM in data set [1]; 2 µM in data set [2]; 0.2 µM in the data set on Giardia lamblia (Giardia duodenalis, read-out: IC50 Giardia lamblia); 100 µM in data set [3]. In addition, the ΔTm DNA in the data set with poly A poly T worked out at 25 °C. In addition, the ΔTm Oligomer in data set [4] came to 11.7 °C. Further, the Oocysts in the data set with Cryptosporidium parvum worked out at 6.6. For the same molecule, the “% Reduction” value in the data set with Cryptosporidium parvum turned out to be 66%.
